Test results as given in US20240277795A1, “INHIBITORS OF CYSTEINE PROTEASES AND METHODS OF USE THEREOF” (Pardes Biosciences, Inc., priority 2021, published 2024).
Like-named read-outs stand apart in the source and are kept apart here.

Key:
[1] = target: 229E Mpro (Human coronavirus 229E, UniProt P0C6X1); test: 229E Mpro enzymatic assay; type: biochemical, HCoV 229E
Method: (§1) Compounds were assayed using standard methods to assess compound activity and IC50. As an exemplary for assessment of the SARS-COV2 Mpro, the C-His6-tagged Mpro (NC_045512) was cloned, expressed in E. coli and purified. The assay buffer contained 20 mM of Tris-HCl (pH 7.3), 100 mM of NaCl, 1 mM of EDTA, 5 mM of TCEP and 0.1% BSA. The final concentrations of the Mpro protein and substrate were 25 nM and 25 μM, respectively, in the Mpro enzymatic assay. The Km of the Mpro substrate for the protease was 13.5 μM.
(§2) The compounds were added to an assay plate. For 100% inhibition control (HPE, hundred percent effect), 1 μM GC376 was added. For no inhibition control (ZPE, zero percent effect), no compound was added.
(§3) IC50 values of compounds were calculated with the GraphPad Prism software using the nonlinear regression model of log(inhibitor) vs. response—Variable slope (four parameters). The inhibition activity was calculated using the formula below, IC50 values is calculated using the Inhibition % data.
(§4) [formula] • #HEP: Hundred percent effect controls. Containing substrate+enzyme+1 μM GC376. • ZPE: Zero percent effective controls. Containing enzyme+substrate, no compound. • Sample: Compound activity testing wells. Containing compound+enzyme+substrate. • BG: Compound background control wells. Containing compound+substrate, no enzyme.

[2] = target: SARS-COV2 Mpro (Severe acute respiratory syndrome coronavirus 2, UniProt P0DTD1); test: COVID-19 (nCoV-2019, SARS-CoV2) Mpro enzymatic assay; type: biochemical
Method: as §1, with “assay.” for “assay. The Km of the Mpro substrate for the protease was 13.5 μM.”
The compounds were added to an assay plate. For 100% inhibition control (HPE, hundred percent effect), 1 μM GC376 was added.
as §3
[formula] • #HEP: Hundred percent effect controls. […] Containing enzyme+substrate, no compound. • Sample: Compound activity testing wells. Containing compound+enzyme+substrate. • BG: Compound background control wells. Containing compound+substrate, no enzyme.

[3] = target: OC43 Mpro (Human coronavirus OC43, UniProt P0C6X6); test: OC43 Mpro enzymatic assay; type: biochemical, HCoV OC43
OC43 Mpro, sequence (P0C6X6 3247-3549): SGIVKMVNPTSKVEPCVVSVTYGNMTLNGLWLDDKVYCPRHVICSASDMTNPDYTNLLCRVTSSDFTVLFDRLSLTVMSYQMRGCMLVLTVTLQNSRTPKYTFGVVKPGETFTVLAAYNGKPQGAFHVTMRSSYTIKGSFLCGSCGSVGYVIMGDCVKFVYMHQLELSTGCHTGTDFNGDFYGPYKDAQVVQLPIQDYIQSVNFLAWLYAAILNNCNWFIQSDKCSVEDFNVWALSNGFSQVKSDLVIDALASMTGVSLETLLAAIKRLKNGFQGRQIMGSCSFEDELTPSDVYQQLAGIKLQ
Method: as §1, §2, §3, §4

[4] = tested on: HCoV 229E; test: HCoV 229E cytopathic effect (CPE) assay; type: cell-based; conditions: read-out: 229E CPE EC50
Method: (§5) Compounds were assayed using standard methods against multiple coronaviral strains, including HCoV 229E and OC43 strains. The antiviral activity of compounds was calculated based on the protection of the virus-induced CPE at each concentration normalized by the virus control.
(§6) Reagents and instruments used in this assay include luminescent cell viability assay kit CellTiter Glo (Promega) and Microplate Reader Synergy2 (BioTek).
Cytopathic effect (CPE) was measured by CellTiter Glo following the manufacturer's manual. The antiviral activity of compounds was calculated based on the protection of the virus-induced CPE at each concentration normalized by the virus control.
(§7) The cytotoxicity of compounds was assessed under the same conditions, but without virus infection, in parallel. Cell viability was measured with CellTiter Glo. The antiviral activity and cytotoxicity of compounds were expressed as % Inhibition and % Viability, respectively, and calculated with formulas.

[5] = tested on: HCov OC43; test: HCoV OC43 cytopathic effect (CPE) assay; type: cell-based; conditions: Betacoronavirus 1, OC43; Table 4; CellTiter Glo
Method: as §5, §6
Reference compound used was remdesivir; detection reagent: CellTiter Glo.) The CPE were measured by CellTiter Glo following the manufacturer's manual. The antiviral activity of compounds was calculated based on the protection of the virus-induced CPE at each concentration normalized by the virus control.
as §7

[6] = Table 3, read-out: COVID-19 Mpro IC50
[7] = Table 5, read-out: COVID-19 Mpro IC50

229E Mpro, sequence (P0C6X1 2966-3267): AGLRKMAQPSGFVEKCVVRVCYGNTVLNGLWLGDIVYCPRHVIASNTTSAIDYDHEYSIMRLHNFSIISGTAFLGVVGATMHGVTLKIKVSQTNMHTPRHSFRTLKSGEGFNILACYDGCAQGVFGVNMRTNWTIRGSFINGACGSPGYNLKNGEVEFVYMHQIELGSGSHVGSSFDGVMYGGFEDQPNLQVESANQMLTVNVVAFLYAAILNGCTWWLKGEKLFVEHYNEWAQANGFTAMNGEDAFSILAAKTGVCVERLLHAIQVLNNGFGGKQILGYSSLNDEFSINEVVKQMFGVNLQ

Compound	IC50 ([1]; Table 3) [nM]	IC50 [2] [nM]	IC50 ([3]; Table 3) [nM]	EC50 ([4]; Table 4, CellTiter Glo) [nM]	EC50 [5] [µM]	IC50 [2, 6] [nM]	EC50 [4] [nM]	IC50 ([1]; Table 5) [nM]	IC50 [2, 7] [nM]	IC50 ([3]; Table 5) [nM]
Cc1cc(C(=O)N[C@@H](Cc2cccc3ccccc23)C(=O)N[C@@H](CC2CC2)C(=O)N[C@H](C#N)C[C@@H]2CCCNC2=O)no1 [Compound 111, N—((S)-1-(((S)-1-(((S)-1-cyano-2-((S)-2-oxopiperidin-3-yl)ethyl)amino)-3-cyclopropyl-1-oxopropan-2-yl)amino)-3-(naphthalen-1-yl)-1-oxopropan-2-yl)-5-methylisoxazole-3-carboxamide]	< 2000	2000 to 10000	< 2000	10000 to 30000	2 to 10	–	–	–	–	–
CC(C)(C)[C@H](NC(=O)OC1CCOC1)C(=O)N1C[C@H]2[C@@H]([C@H]1C(=O)N[C@H](C#N)C[C@@H]1CC3(CC3)NC1=O)C2(C)C (stereo partly drawn) [Compound 134, tetrahydrofuran-3-yl N-[(1S)-1-[(1R,2S,5S)-2-[[(1S)-1-cyano-2-[(6R)-5-oxo-4-azaspiro[2.4]heptan-6-yl]ethyl]carbamoyl]-6,6-dimethyl-3-azabicyclo[3.1.0]hexane-3-carbonyl]-2,2-dimethyl-propyl]carbamate]	< 2000	< 2000	< 2000	< 2000	–	–	–	–	–	–
CC(C)(C)[C@H](NC(=O)C1(C(F)(F)F)CC1)C(=O)N1C[C@H]2[C@@H]([C@H]1C(=O)N[C@H](C#N)C[C@@H]1CC3(CC3)NC1=O)C2(C)C [Compound 136, (1R,2S,5S)—N-[(1S)-1-cyano-2-[(6R)-5-oxo-4-azaspiro[2.4]heptan-6-yl]ethyl]-3-[(2S)-3,3-dimethyl-2-[[1-(trifluoromethyl)cyclopropanecarbonyl]amino]butanoyl]-6,6-dimethyl-3-azabicyclo[3.1.0]hexane-2-carboxamide]	< 2000	< 2000	< 2000	< 2000	–	–	–	–	–	–
COCCOC(=O)N[C@H](C(=O)N1C[C@H]2[C@@H]([C@H]1C(=O)N[C@H](C#N)C[C@@H]1CC3(CC3)NC1=O)C2(C)C)C(C)(C)C [Compound 133, 2-methoxyethyl ((S)-1-((1R,2S,5S)-2-(((S)-1-cyano-2-((R)-5-oxo-4-azaspiro[2.4]heptan-6-yl)ethyl)carbamoyl)-6,6-dimethyl-3-azabicyclo[3.1.0]hexan-3-yl)-3,3-dimethyl-1-oxobutan-2-yl)carbamate]	< 2000	< 2000	< 2000	< 2000	–	–	–	–	–	–
CC(C)(C)C(=O)N[C@H](C(=O)N1C[C@H]2[C@@H]([C@H]1C(=O)N[C@H](C#N)C[C@@H]1CC3(CC3)NC1=O)C2(C)C)C(C)(C)C [Compound 135, (1R,2S,5S)—N-[(1S)-1-cyano-2-[(6R)-5-oxo-4-azaspiro[2.4]heptan-6-yl]ethyl]-3-[(2S)-2-(2,2-dimethylpropanoylamino)-3,3-dimethyl-butanoyl]-6,6-dimethyl-3-azabicyclo[3.1.0]hexane-2-carboxamide]	< 2000	< 2000	< 2000	< 2000	–	–	–	–	–	–
N#C[C@H](C[C@@H]1CC2(CC2)NC1=O)NC(=O)[C@H](CC1CC1)NC(=O)[C@H](Cc1cccc2ccccc12)NC(=O)OCc1ccccc1 [Compound 110, benzyl((S)-1-(((S)-1-(((S)-1-cyano-2-((R)-5-oxo-4-azaspiro[2.4]heptan-6-yl)ethyl)amino)-3-cyclopropyl-1-oxopropan-2-yl)amino)-3-(naphthalen-1-yl)-1-oxopropan-2-yl)carbamate]	< 2000	< 2000	< 2000	< 2000	–	–	–	–	–	–
CC(C)(C)[C@H](NC(=O)OCC(F)(F)F)C(=O)N1C[C@H]2[C@@H]([C@H]1C(=O)N[C@H](C#N)C[C@@H]1CC3(CC3)NC1=O)C2(C)C [Compound 132, 2,2,2-trifluoroethyl ((S)-1-((1R,2S,5S)-2-(((S)-1-cyano-2-((R)-5-oxo-4-azaspiro[2.4]heptan-6-yl)ethyl)carbamoyl)-6,6-dimethyl-3-azabicyclo[3.1.0]hexan-3-yl)-3,3-dimethyl-1-oxobutan-2-yl)carbamate]	< 2000	–	< 2000	–	–	< 2000	< 2000	–	–	–
C[C@@H](OC1CCC1)[C@H](NC(=O)C(F)(F)F)C(=O)N1C[C@H]2[C@@H]([C@H]1C(=O)N[C@H](C#N)C[C@@H]1CC(C)(C)NC1=O)C2(C)C [Compound 307, (1R,2S,5S)—N-[(1S)-1-cyano-2-[(3R)-5,5-dimethyl-2-oxo-pyrrolidin-3-yl]ethyl]-3-[(2S,3R)-3-(cyclobutoxy)-2-[(2,2,2-trifluoroacetyl)amino]butanoyl]-6,6-dimethyl-3-azabicyclo[3.1.0]hexane-2-carboxamide]	< 2000	–	< 2000	–	–	< 2000	–	–	–	–
C[C@H](OC(C)(C)C)[C@H](NC(=O)C(F)(F)F)C(=O)N1C[C@H]2[C@@H]([C@H]1C(=O)N[C@H](C#N)C[C@@H]1CC3(CC3)NC1=O)C2(C)C [Compound 138, (1R,2S,5S)-3-[(2S,3S)-3-tert-butoxy-2-[(2,2,2-trifluoroacetyl)amino]butanoyl]-N-[(1S)-1-cyano-2-[(6R)-5-oxo-4-azaspiro[2.4]heptan-6-yl]ethyl]-6,6-dimethyl-3-azabicyclo[3.1.0]hexane-2-carboxamide]	–	–	–	–	–	–	–	< 2000	< 2000	< 2000
C[C@@H](OC1(C)CC1)[C@H](NC(=O)C(F)(F)F)C(=O)N1C[C@H]2[C@@H]([C@H]1C(=O)N[C@H](C#N)C[C@@H]1CC(C)(C)NC1=O)C2(C)C (single isomer, unassigned) [Compound 299]	< 2000	–	< 2000	–	–	< 2000	–	< 2000	–	< 2000
CC(C)(C)[C@H](NC(=O)c1cnccn1)C(=O)N1C[C@H]2[C@@H]([C@H]1C(=O)N[C@H](C#N)C[C@@H]1CC3(CC3)NC1=O)C2(C)C [Compound 129, (1R,2S,5S)—N-[(1S)-1-cyano-2-[(6R)-5-oxo-4-azaspiro[2.4]heptan-6-yl]ethyl]-3-[(2S)-3,3-dimethyl-2-(pyrazine-2-carbonylamino)butanoyl]-6,6-dimethyl-3-azabicyclo[3.1.0]hexane-2-carboxamide]	< 2000	< 2000	< 2000	< 2000	–	–	–	–	–	–
C[C@@H](OC1CC1)[C@@H](NC(=O)C(F)(F)F)C(=O)N1C[C@H]2[C@@H]([C@H]1C(=O)N[C@H](C#N)C[C@@H]1CC(C)(C)NC1=O)C2(C)C (single isomer, unassigned) [Compound 298a]	–	–	–	–	–	–	–	< 2000	< 2000	< 2000
C[C@@H](OC(C)(C)C)[C@H](NC(=O)C(F)(F)F)C(=O)N1C[C@H]2[C@@H]([C@H]1C(=O)N[C@H](C#N)C[C@@H]1CC3(CC3)NC1=O)C2(C)C [Compound 137, (1R,2S,5S)-3-[(2S,3R)-3-tert-butoxy-2-[(2,2,2-trifluoroacetyl)amino]butanoyl]-N-[(1S)-1-cyano-2-[(6R)-5-oxo-4-azaspiro[2.4]heptan-6-yl]ethyl]-6,6-dimethyl-3-azabicyclo[3.1.0]hexane-2-carboxamide]	–	–	–	–	–	–	–	< 2000	< 2000	< 2000
CC1(C)C[C@@H](C[C@@H](C#N)NC(=O)[C@@H]2[C@@H]3[C@H](CN2C(=O)C2(NC(=O)C(F)(F)F)CCC2)C3(C)C)C(=O)N1 [Compound 316, (1R,2S,5S)—N-[(1S)-1-cyano-2-[(3R)-5,5-dimethyl-2-oxo-pyrrolidin-3-yl]ethyl]-6,6-dimethyl-3-[1-[(2,2,2-trifluoroacetyl)amino]cyclobutanecarbonyl]-3-azabicyclo[3.1.0]hexane-2-carboxamide]	> 30000	–	10000 to 30000	–	–	< 2000	–	–	–	–
